# Data as given in US8853258B2, “C-linked hydroxamic acid derivatives useful as antibacterial agents” (Pfizer Inc., priority 2009, dated 2014).
# How the values were obtained:
# [1] = molecular target: Pseudomonas aeruginosa LpxC enzyme (Pseudomonas aeruginosa (strain ATCC 15692 / DSM 22644 / CIP 104116 / JCM 14847 / LMG 12228 / 1C / PRS 101 / PAO1), UniProt P47205); experiment: IC50 Assay, LpxC Enzyme from P. aeruginosa (PA LpxC Enzyme IC50); format: biochemical; details: P. aeruginosa LpxC enzyme; read-out: PA LpxC enzyeme IC50
# Method: In order to assess the compounds biological activity, selected in-vitro assays were conducted on selected compounds. One of the assays measured the compounds ability to disrupt the synthesis of lipopolysaccharide, LPS, which is a component of the outer membrane of Gram-negative bacteria. Disruption of this synthesis is lethal to the bacteria. The assay determined the compound's ability to inhibit LpxC, which is the first enzyme in the biosynthetic pathway for LPS (measured as IC50). Additionally, MICs (minimal inhibitory concentrations) were determined for several bacteria. The specific protocols are described below:
# A) IC50 Assay, LpxC Enzyme from P. aeruginosa (Labled as PA LpxC Enzyme IC50
# At the end of 1 hour, 5 ul of 1N HCl was added to stop the enzyme reaction; the plates were centrifuged, and then processed with the BioTrove Rapidfire HTMS Mass Spectrometry System. A no-enzyme control was used in calculating the IC50 values from the percent conversion values.
# [2] = system: Acinetobacter baumanii/haemolyticus: Multidrug-resistant clinical isolate (AB-3167); experiment: MIC determination (CLSI), AB-3167; format: cell-based; details: Acinetobacter baumanii/haemolyticus multidrug-resistant clinical isolate AB-3167
# Method in brief: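 Multidrug-resistant clinical isolate AB-3167 (A. baumannii/haemolyticus) tested for minimum inhibitory concentration following CLSI dilution susceptibility standards M7-A7 and M100-S18.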
# [3] = system: Escherichia coli EC-1: VOGEL, mouse virulent; experiment: MIC determination (CLSI), EC-1; format: cell-based; details: Escherichia coli EC-1 VOGEL, mouse virulent
# Method in brief: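 E. coli Vogel, a mouse-virulent strain (EC-1), was tested. MICs were set by dilution susceptibility testing per CLSI standards M7-A7/M100-S18.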
# [4] = system: Klebsiella pneumoniae: Ciprofloxacin-resistant isolate, ESBL, clinical isolate (KP-3700); experiment: MIC determination (CLSI), KP-3700; format: cell-based
# Method in brief: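 MIC measured by broth dilution according to CLSI M7-A7 and M100-S18 standards. Test organism was a ciprofloxacin-resistant, ESBL-expressing clinical isolate.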
# [5] = system: Pseudomonas aeruginosa UI-18: Wild-type (PA-7); experiment: MIC determination (CLSI), PA-7; format: cell-based; details: Pseudomonas aeruginosa UI-18 wild-type PA-7
# Method in brief: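 MIC by dilution method per CLSI M7-A7 and M100-S18 guidelines. Strain: wild-type Pseudomonas aeruginosa UI-18.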
SMILES,IC50 [1] [nM],AB-3167 MIC [2],EC-1 MIC [3],KP-3700 MIC [4],PA-7 MIC [5]
CC(CCc1ccc(-c2ccc(OCCO)cc2)cc1)(C(=O)NO)S(C)(=O)=O (centres unmarked) [Example 113],0.148,≧64 mg/L,2 µg/mL,8 µg/mL,1 µg/mL
CC(CCc1ccc(-c2ccc(OCCCO)cc2)cc1)(C(=O)NO)S(C)(=O)=O (centres unmarked) [Example 115],0.388,≧64 mg/L,0.5 µg/mL,2 µg/mL,2 µg/mL
CC(CCc1ccc(-c2ccc(CO)c(F)c2)cc1)(C(=O)NO)S(C)(=O)=O (centres unmarked) [Example 123],0.491,≧64 mg/L,16 µg/mL,16 µg/mL,1 µg/mL
CC(CCc1ccc(-c2ccc(C#N)c(Cl)c2)cc1)(C(=O)NO)S(C)(=O)=O (centres unmarked) [Example 126],0.329,8 µg/mL,0.5 µg/mL,2 µg/mL,0.5 µg/mL
CC(CCc1ccc(-c2cc(F)c(C#N)c(F)c2)cc1)(C(=O)NO)S(C)(=O)=O (centres unmarked) [Example 127],0.15,32 µg/mL,1 µg/mL,8 µg/mL,2 µg/mL
CC(CCc1ccc(-c2ccc(C#N)cc2F)cc1)(C(=O)NO)S(C)(=O)=O (centres unmarked) [Example 128],0.232,≧64 mg/L,0.5 µg/mL,8 µg/mL,0.5 µg/mL
CC(CCc1ccc(OCc2ccccc2)cc1)(C(=O)NO)S(C)(=O)=O (centres unmarked) [Example 132],0.386,16 µg/mL,2 µg/mL,16 µg/mL,2 µg/mL
CC(=O)c1ccc(-c2ccc(CCC(C)(C(=O)NO)S(C)(=O)=O)cn2)cc1 (centres unmarked) [Example 133],0.985,≧64 mg/L,16 µg/mL,≧64 mg/L,16 µg/mL
CC(CCc1ccc(-c2ccc(OCCCCO)cc2)cc1)(C(=O)NO)S(C)(=O)=O (centres unmarked) [Example 136],0.205,≧64 mg/L,0.125 µg/mL,1 µg/mL,1 µg/mL
CC(CCc1ccc(-c2ccc(O)c(F)c2)cc1)(C(=O)NO)S(C)(=O)=O (centres unmarked) [Example 138],0.335,32 µg/mL,2 µg/mL,8 µg/mL,1 µg/mL
Cc1cc(-c2ccc(F)cc2)ccc1CCC(C)(C(=O)NO)S(C)(=O)=O (centres unmarked) [Example 157],0.337,8 µg/mL,1 µg/mL,4 µg/mL,4 µg/mL
CC(C)(O)CCc1ccc(-c2ccc(CCC(C)(C(=O)NO)S(C)(=O)=O)cc2)cc1 (centres unmarked) [Example 158],0.644,32 µg/mL,0.5 µg/mL,8 µg/mL,4 µg/mL
Cc1cc(CCC(C)(C(=O)NO)S(C)(=O)=O)ccc1-c1ccccc1 (centres unmarked) [Example 159],5.58,32 µg/mL,4 µg/mL,16 µg/mL,8 µg/mL
Cc1cc(CCC(C)(C(=O)NO)S(C)(=O)=O)ccc1-c1ccc(F)cc1 (centres unmarked) [Example 160],2.54,16 µg/mL,2 µg/mL,8 µg/mL,4 µg/mL
Cc1cc(-c2ccc(C#N)cc2)ccc1CCC(C)(C(=O)NO)S(C)(=O)=O (centres unmarked) [Example 161],0.725,≧64 mg/L,1 µg/mL,16 µg/mL,4 µg/mL
Cc1cc(CCC(C)(C(=O)NO)S(C)(=O)=O)ccc1-c1ccc(C#N)cc1 (centres unmarked) [Example 162],0.241,16 µg/mL,2 µg/mL,16 µg/mL,4 µg/mL
CC(CCc1ccc(-c2ccc(N3CCOCC3)cc2)cc1)(C(=O)NO)S(C)(=O)=O (centres unmarked) [Example 165],0.295,≧64 mg/L,0.5 µg/mL,8 µg/mL,8 µg/mL

SMILES,IC50 [1] [nM],AB-3167 MIC [2],EC-1 MIC [3],KP-3700 MIC [4],PA-7 MIC [5]
CN1CCN(c2ccc(-c3ccc(CCC(C)(C(=O)NO)S(C)(=O)=O)cc3)cc2)CC1 (centres unmarked) [Example 166],1.17,≧64 mg/L,4 µg/mL,16 µg/mL,2 µg/mL
CC(CCc1ccc(-c2ccc(F)cc2)c(F)c1)(C(=O)NO)S(C)(=O)=O (centres unmarked) [Example 167],0.235,8 µg/mL,1 µg/mL,4 µg/mL,0.5 µg/mL
CC(CCc1ccc(-c2ccc(C#N)cc2)cc1F)(C(=O)NO)S(C)(=O)=O (centres unmarked) [Example 168],0.427,≧64 mg/L,1 µg/mL,2 µg/mL,1 µg/mL
CC(CCc1ccc(-c2ccc(C(=O)CO)cc2)cc1)(C(=O)NO)S(C)(=O)=O (centres unmarked) [Example 169],0.2,32 µg/mL,2 µg/mL,4 µg/mL,1 µg/mL
COc1cccc(-c2ccc(CC[C@](C)(C(=O)NO)S(C)(=O)=O)cc2)c1 [Example 170],54,16 µg/mL,≧64 mg/L,≧64 mg/L,≧64 mg/L
COc1cc(CCC(C)(C(=O)NO)S(C)(=O)=O)ccc1-c1ccccc1 (centres unmarked) [Example 171],14.6,≧64 mg/L,4 µg/mL,16 µg/mL,32 µg/mL
C[C@@](CCc1ccc(-c2ccc(OCCN3CCOCC3)cc2)cc1)(C(=O)NO)S(C)(=O)=O [Example 172],0.512,≧64 mg/L,0.5 µg/mL,4 µg/mL,4 µg/mL
CC(CCc1ccc(-c2ccc3c(c2)CNC3)cc1)(C(=O)NO)S(C)(=O)=O (centres unmarked) [Example 173],2.68,≧64 mg/L,≧64 mg/L,≧64 mg/L,16 µg/mL
CC(CCc1ccc(-c2ccc3nonc3c2)cc1)(C(=O)NO)S(C)(=O)=O (centres unmarked) [Example 174],0.54,≧64 mg/L,4 µg/mL,8 µg/mL,2 µg/mL
C[C@](CCc1ccc(-c2ccc3c(c2)OCCO3)cc1)(C(=O)NO)S(C)(=O)=O [Example 175],14.6,≧64 mg/L,32 µg/mL,≧64 mg/L,≧64 mg/L
CC(CCc1ccc(-c2ccc3c(c2)OCO3)cc1)(C(=O)NO)S(C)(=O)=O (centres unmarked) [Example 176],0.0303,16 µg/mL,0.5 µg/mL,2 µg/mL,0.5 µg/mL
CC(CCc1ccc(-c2ccc(O)cc2)c(F)c1)(C(=O)NO)S(C)(=O)=O (centres unmarked) [Example 177],0.306,32 µg/mL,1 µg/mL,8 µg/mL,2 µg/mL
CC(CCc1ccc(-c2ccc(O)cc2)cc1F)(C(=O)NO)S(C)(=O)=O (centres unmarked) [Example 178],0.0592,8 µg/mL,1 µg/mL,4 µg/mL,1 µg/mL
C[C@@](CCc1ccc(-c2ccc(OCCCN3CCOCC3)cc2)cc1)(C(=O)NO)S(C)(=O)=O [Example 179],0.172,2 µg/mL,0.125 µg/mL,2 µg/mL,2 µg/mL
CC(=O)c1cc(-c2ccc(CCC(C)(C(=O)NO)S(C)(=O)=O)cc2)ccc1O (centres unmarked) [Example 180],0.826,16 µg/mL,4 µg/mL,16 µg/mL,8 µg/mL
CC(=O)c1ccc(-c2ccc(CCC(C)(C(=O)NO)S(C)(=O)=O)cc2)cc1O (centres unmarked) [Example 181],0.138,8 µg/mL,0.5 µg/mL,8 µg/mL,2 µg/mL
CC(=O)c1ccc(-c2ccc(CC[C@](C)(C(=O)NO)S(C)(=O)=O)cc2)cc1 [Example 182],0.0674,16 µg/mL,0.5 µg/mL,1 µg/mL,0.5 µg/mL
